Consider one molecule from patent publication US6949553B2, “Aliphatic compounds, their synthesis method, and utilization of the same” (Maruha Corporation, priority 2001, dated 2005).

The assay concerns vascular smooth muscle cells. Kind of assay: Synthetic type vascular smooth muscle cell proliferation (PDGF, BrdU assay). In kind it is cell-based, rat. Conditions: 0.3 to 3 μM with PDGF 50 ng/ml, 24 hours. The method, then: The effect of the study substance on vascular smooth muscle cell proliferation was studied.
Thus, the effect of Compound 2 on the cell proliferation of vascular smooth muscle cells was measured in the following manner:
The rat carotid arterial tunica intima was rubbed by ballooning, and vascular smooth muscle cells were prepared by explant culture. Two weeks later, these cells were cultured in a DMEM culture medium (Gibco) containing 10% fetal bovine serum. The cultures were subcultured several times for stabilization, and then planted at a cell density of 5×10^3 cells/cm^2 for use in experiments. Compound 2 in combination with 50 ng/ml of the growth factor PDGF (Sigma) was added to the above planted cells and, 24 hours later, the cell density was measured by BrdU assay (Science '82, 218, p. 474, Cytometry '85, 6, p. 584). The cell density in the absence of the drug was measured as a control.
Relative smooth muscle cell count (%)=[cell count in the experimental group]/[cell count in the control]×100.

Each structure is given as a SMILES string.

Turning to `CC/C=C\C/C=C\C/C=C\C/C=C\C/C=C\C/C=C\CCC(=O)NCCC1CCCN1C` (racemic) [Compound 2, (4Z,7Z,10Z,13Z,16Z,19Z)-N-[2-(1-methylpyrrolidin-2-yl)ethyl]docosahexaenoamide], the “vascular smooth muscle cell proliferation (in words)” value is reported as “suppress vascular smooth muscle cell proliferation concentration-dependently”.
